According to PubChem BioAssay AID256 (DTP/NCI, 2004):
“And” between values parts separate entries of the source, which are not always exact repeats. Identical values can stand only once. Toxic doses and inconclusive results are not listed. Rule for the calls: active = survival T/C of 150% or more; inactive = T/C below 125% in these data.

Test system: CD2F1 mice, L1210 leukemia ip, survival T/C
Assay: NCI In Vivo Anticancer Drug Screen. Data for tumor model L1210 Leukemia (intraperitoneal) in CD2F1 (CDF1) mice
Details: higher = longer survival
Method: The antitumor activity of compounds was measured in mice bearing transplantable tumors. Survival or tumor size were measured and the results are expressed as the measurement made in the treated group (T) divided by the measurement made in the vehicle treated control group (C). The tumor model used in this assay is L1210 Leukemia (intraperitoneal) in CD2F1 (CDF1) mice

[1] = endpoint: mean survival time, dose: 50.0 mg/kg/injection, schedule: Q01DX009 (ip), vehicle: saline
[2] = endpoint: mean survival time, dose: 100.0 mg/kg/injection, schedule: Q01DX001 (ip), vehicle: saline
[3] = endpoint: mean survival time, dose: 100.0 mg/kg/injection, schedule: Q01DX009 (ip), vehicle: saline
[4] = endpoint: mean survival time, dose: 200.0 mg/kg/injection, schedule: Q01DX001 (ip), vehicle: saline
[5] = endpoint: mean survival time, dose: 100.0 mg/kg/injection, schedule: Q04DX003 (ip), vehicle: saline with Tween-80
[6] = endpoint: mean survival time, dose: 200.0 mg/kg/injection, schedule: Q04DX003 (ip), vehicle: saline with Tween-80
[7] = endpoint: mean survival time, dose: 50.0 mg/kg/injection, schedule: Q01DX009 (ip), vehicle: saline with Tween-80
[8] = endpoint: mean survival time, dose: 100.0 mg/kg/injection, schedule: Q01DX009 (ip), vehicle: saline with Tween-80
[9] = endpoint: mean survival time, dose: 100.0 mg/kg/injection, schedule: Q01DX001 (ip), vehicle: saline with Tween-80
[10] = endpoint: mean survival time, dose: 200.0 mg/kg/injection, schedule: Q01DX001 (ip), vehicle: saline with Tween-80
[11] = endpoint: mean survival time, dose: 200.0 mg/kg/injection, schedule: Q01DX009 (ip), vehicle: saline with Tween-80
[12] = endpoint: mean survival time, dose: 400.0 mg/kg/injection, schedule: Q01DX009 (ip), vehicle: saline with Tween-80
[13] = endpoint: mean survival time, dose: 400.0 mg/kg/injection, schedule: Q04DX003 (ip), vehicle: saline with Tween-80

Measured: T/C

CSc1nc(N)c2cnn(C3OC(CO)C(O)C3O)c2n1 (configuration not stated)
inactive: endpoint: median survival time, dose: 8.13 mg/kg/injection, schedule: Q01DX005 (ip), vehicle: saline with Tween-80 100 % of control | endpoint: median survival time, dose: 9.0 mg/kg/injection, schedule: Q01DX005 (ip), vehicle: saline 107 % of control | endpoint: median survival time, dose: 12.5 mg/kg/injection, schedule: Q01DX005 (ip), vehicle: saline with Tween-80 102 % of control | endpoint: median survival time, dose: 16.25 mg/kg/injection, schedule: Q01DX005 (ip), vehicle: saline with Tween-80 97 % of control | endpoint: median survival time, dose: 18.0 mg/kg/injection, schedule: Q01DX005 (ip), vehicle: saline 100 % of control | endpoint: median survival time, dose: 25.0 mg/kg/injection, schedule: Q01DX005 (ip), vehicle: saline with Tween-80 100 % of control | endpoint: median survival time, dose: 32.5 mg/kg/injection, schedule: Q01DX005 (ip), vehicle: saline with Tween-80 101 % of control | endpoint: median survival time, dose: 36.0 mg/kg/injection, schedule: Q01DX005 (ip), vehicle: saline 103 % of control | endpoint: median survival time, dose: 50.0 mg/kg/injection, schedule: Q01DX005 (ip), vehicle: saline with Tween-80 94 % of control | endpoint: median survival time, dose: 65.0 mg/kg/injection, schedule: Q01DX005 (ip), vehicle: saline with Tween-80 100 % of control | endpoint: median survival time, dose: 72.0 mg/kg/injection, schedule: Q01DX005 (ip), vehicle: saline 97 % of control | endpoint: median survival time, dose: 100.0 mg/kg/injection, schedule: Q01DX005 (ip), vehicle: saline with Tween-80 93 % of control | endpoint: median survival time, dose: 130.0 mg/kg/injection, schedule: Q01DX005 (ip), vehicle: saline with Tween-80 101 % of control | endpoint: median survival time, dose: 200.0 mg/kg/injection, schedule: Q01DX005 (ip), vehicle: saline with Tween-80 94 % of control

CN(C)c1nc2c(N)ncnc2n1C1OC(CO)C(O)C1O (configuration not stated)
inactive: endpoint: mean survival time, dose: 10.0 mg/kg/injection, schedule: Q04DX002 (ip), vehicle: saline with Tween-80 103 % of control | endpoint: mean survival time, dose: 20.0 mg/kg/injection, schedule: Q04DX002 (ip), vehicle: saline with Tween-80 98 % of control | endpoint: mean survival time, dose: 40.0 mg/kg/injection, schedule: Q04DX002 (ip), vehicle: saline with Tween-80 98 % of control | endpoint: mean survival time, dose: 50.0 mg/kg/injection, schedule: Q01DX001 (ip), vehicle: saline 100 % of control | [1] 123 % of control | [2] 106 % of control | [3] 100 % of control | [4] 102 % of control

CC1(C)COCN1COCCOCN1COCC1(C)C
inactive: endpoint: mean survival time, dose: 6.25 mg/kg/injection, schedule: Q01DX009 (ip), vehicle: saline 97 % of control and 98 % of control | endpoint: mean survival time, dose: 12.5 mg/kg/injection, schedule: Q01DX009 (ip), vehicle: saline 100 % of control and 101 % of control | endpoint: mean survival time, dose: 25.0 mg/kg/injection, schedule: Q01DX009 (ip), vehicle: saline 105 % of control and 107 % of control | [1] 106 % of control and 107 % of control | [3] 95 % of control and 105 % of control

CC1CCC(C(C)C2C(O)CC3C4CC=C5CC(O)CCC5(C)C4CCC32C)NC1 (configuration not stated)
inactive: endpoint: mean survival time, dose: 50.0 mg/kg/injection, schedule: Q04DX003 (ip), vehicle: saline with Tween-80 93 % of control | [5] 90 % of control and 96 % of control | [6] 87 % of control and 98 % of control

Cc1cc2cc3cc(C)c(N)cc3nc2cc1N
inactive: endpoint: mean survival time, dose: 3.12 mg/kg/injection, schedule: Q01DX009 (ip), vehicle: saline with Tween-80 103 % of control and 106 % of control | endpoint: mean survival time, dose: 6.25 mg/kg/injection, schedule: Q01DX009 (ip), vehicle: saline with Tween-80 101 % of control and 107 % of control | endpoint: mean survival time, dose: 12.5 mg/kg/injection, schedule: Q01DX009 (ip), vehicle: saline with Tween-80 106 % of control | endpoint: mean survival time, dose: 25.0 mg/kg/injection, schedule: Q01DX009 (ip), vehicle: saline with Tween-80 98 % of control and 106 % of control | [7] 86 % of control and 97 % of control | [8] 92 % of control

CCC(CNCCCCCC(=O)O)(C(=O)O)C(=O)O
inactive: endpoint: mean survival time, dose: 12.5 mg/kg/injection, schedule: Q04DX002 (ip), vehicle: saline with Tween-80 90 % of control | endpoint: mean survival time, dose: 25.0 mg/kg/injection, schedule: Q04DX002 (ip), vehicle: saline with Tween-80 98 % of control | endpoint: mean survival time, dose: 50.0 mg/kg/injection, schedule: Q04DX002 (ip), vehicle: saline with Tween-80 94 % of control

[NH-]C(CO)C(=O)O.[NH-]C(CO)C(=O)O.[Pd+2] (configuration not stated)
inactive: endpoint: mean survival time, dose: 3.13 mg/kg/injection, schedule: Q04DX003 (ip), vehicle: distilled water + Tween-80 104 % of control | endpoint: mean survival time, dose: 3.13 mg/kg/injection, schedule: Q04DX003 (ip), vehicle: saline 114 % of control | endpoint: mean survival time, dose: 3.13 mg/kg/injection, schedule: Q04DX003 (ip), vehicle: water 95 % of control | endpoint: mean survival time, dose: 6.25 mg/kg/injection, schedule: Q04DX003 (ip), vehicle: distilled water + Tween-80 96 % of control | endpoint: mean survival time, dose: 6.25 mg/kg/injection, schedule: Q04DX003 (ip), vehicle: saline 94 % of control | endpoint: mean survival time, dose: 6.25 mg/kg/injection, schedule: Q04DX003 (ip), vehicle: water 95 % of control | endpoint: mean survival time, dose: 12.5 mg/kg/injection, schedule: Q04DX003 (ip), vehicle: distilled water + Tween-80 98 % of control | endpoint: mean survival time, dose: 12.5 mg/kg/injection, schedule: Q04DX003 (ip), vehicle: saline 102 % of control | endpoint: mean survival time, dose: 12.5 mg/kg/injection, schedule: Q04DX003 (ip), vehicle: water 97 % of control | endpoint: mean survival time, dose: 25.0 mg/kg/injection, schedule: Q04DX003 (ip), vehicle: distilled water + Tween-80 95 % of control | endpoint: mean survival time, dose: 25.0 mg/kg/injection, schedule: Q04DX003 (ip), vehicle: saline 103 % of control | endpoint: mean survival time, dose: 25.0 mg/kg/injection, schedule: Q04DX003 (ip), vehicle: water 96 % of control | endpoint: mean survival time, dose: 50.0 mg/kg/injection, schedule: Q04DX003 (ip), vehicle: distilled water + Tween-80 98 % of control | endpoint: mean survival time, dose: 50.0 mg/kg/injection, schedule: Q04DX003 (ip), vehicle: saline 107 % of control | endpoint: mean survival time, dose: 50.0 mg/kg/injection, schedule: Q04DX003 (ip), vehicle: water 105 % of control | endpoint: mean survival time, dose: 100.0 mg/kg/injection, schedule: Q04DX003 (ip), vehicle: distilled water + Tween-80 102 % of control | endpoint: mean survival time, dose: 100.0 mg/kg/injection, schedule: Q04DX003 (ip), vehicle: saline 106 % of control | endpoint: mean survival time, dose: 100.0 mg/kg/injection, schedule: Q04DX003 (ip), vehicle: water 91 % of control

OCC1OC(n2cnc3c(SSc4ncnc5c4ncn5C4CC(O)C(CO)O4)ncnc32)CC1O (configuration not stated)
inactive: endpoint: mean survival time, dose: 178.0 mg/kg/injection, schedule: Q01DX001 (ip), vehicle: saline 114 % of control

O=C1N(C2CCCCC2)CC2C(c3cccnc3)NNC12O (configuration not stated)
inactive: [9] 97 % of control | [10] 87 % of control

CCCCCCNC(=O)Nc1cccc(Cl)c1C
inactive: [8] 94 % of control | [5] 91 % of control | [11] 94 % of control | [12] 103 % of control | [13] 92 % of control

COc1cccc2c1C(=N)c1c(O)c3c(c(O)c1C2=O)C[C@@](O)(C(C)=O)C[C@@H]3OC1CC(N)C(O)C(C)O1 (some centres not stated)
inactive: endpoint: mean survival time, dose: 0.5 mg/kg/injection, schedule: Q01DX009 (ip), vehicle: saline 121 % of control and 108 % of control | endpoint: mean survival time, dose: 1.0 mg/kg/injection, schedule: Q01DX009 (ip), vehicle: saline 124 % of control | endpoint: mean survival time, dose: 2.0 mg/kg/injection, schedule: Q01DX009 (ip), vehicle: saline 113 % of control and 122 % of control | endpoint: mean survival time, dose: 4.0 mg/kg/injection, schedule: Q01DX009 (ip), vehicle: saline 114 % of control and 119 % of control | endpoint: mean survival time, dose: 8.0 mg/kg/injection, schedule: Q01DX009 (ip), vehicle: saline 101 % of control

CCN(CC)c1cccc(O)c1
inactive: [7] 92 % of control | [8] 98 % of control

C=CCOC(=O)Oc1ccccc1Cl
inactive: [8] 102 % of control | [5] 98 % of control | [6] 95 % of control

CCOc1ccc(NC2OC(CO)C(O)C(O)C2O)cc1 (configuration not stated)
inactive: [2] 100 % of control | [4] 108 % of control

CCOC(=O)c1c(C)c2c(n1C)CC/C(=C\O)C2=O
inactive: endpoint: mean survival time, dose: 25.0 mg/kg/injection, schedule: Q04DX002 (ip), vehicle: other 100 % of control | endpoint: mean survival time, dose: 50.0 mg/kg/injection, schedule: Q04DX002 (ip), vehicle: other 96 % of control | endpoint: mean survival time, dose: 100.0 mg/kg/injection, schedule: Q04DX002 (ip), vehicle: other 88 % of control and 96 % of control

O=C(O)/C(=C/c1ccc(O)cc1)c1ccccc1
inactive: [8] 88 % of control | [5] 101 % of control | [11] 93 % of control | [6] 91 % of control | [12] 87 % of control | [13] 96 % of control

Cc1ccc(S(=O)(=O)N(C)c2ccc(C(=O)O)c(Cl)c2Cl)cc1
inactive: [9] 96 % of control | [8] 101 % of control | [10] 93 % of control | [11] 98 % of control | endpoint: mean survival time, dose: 400.0 mg/kg/injection, schedule: Q01DX001 (ip), vehicle: saline with Tween-80 102 % of control | [12] 98 % of control
